Results from ChEMBL document CHEMBL4382254, “Design, synthesis, structure-activity relationships and mechanism of action of new quinoline derivatives as potential antitumor agents” (Eur J Med Chem, 2019).
One block for each molecule: values may come before it.

Legend:
BGC-823 = assay: Cytotoxicity against human BGC823 cells after 48 hrs by MTT assay; type: functional, cell-based; conditions: BGC-823, 48 h
RKO = assay: Cytotoxicity against human RKO cells after 48 hrs by MTT assay; type: functional, cell-based
DLD-1 = assay: Cytotoxicity against human DLD1 cells after 48 hrs by MTT assay; type: functional, cell-based; conditions: DLD-1, 48 h
NCI-H1650 = assay: Cytotoxicity against human NCI-H1650 cells after 48 hrs by MTT assay; type: functional, cell-based; conditions: NCI-H1650, 48 h
SK-OV-3 = assay: Cytotoxicity against human SKOV3 cells after 48 hrs by MTT assay; type: functional, cell-based; conditions: SK-OV-3, 48 h
HCT-116 = assay: Cytotoxicity against human HCT116 cells after 48 hrs by MTT assay; type: functional, cell-based; conditions: HCT-116, 48 h
HepG2 = assay: Cytotoxicity against human HepG2 cells after 48 hrs by MTT assay; type: functional, cell-based; conditions: HepG2, 48 h
[1] = Solubility of the compound in water; type: physicochemical

Structure (SMILES): CC(C)Oc1ccc2c(Cl)ccnc2c1
IC50 (BGC-823): 2.63 µM | IC50 (RKO): 2.69 µM | IC50 (DLD-1): 3.24 µM | IC50 (NCI-H1650): 2.31 µM | IC50 (SK-OV-3): 3.06 µM | IC50 (HCT-116): 2.59 µM | IC50 (HepG2): 2.05 µM

Structure (SMILES): CC(C)COc1ccc2c(Cl)ccnc2c1
IC50 (BGC-823): 3.03 µM | IC50 (RKO): 2.68 µM | IC50 (DLD-1): 3.1 µM | IC50 (NCI-H1650): 2.1 µM | IC50 (SK-OV-3): 3.19 µM | IC50 (HCT-116): 2.49 µM | IC50 (HepG2): 2.25 µM

solubility [1]: > 10000 µg/mL
Structure (SMILES): CN(C)CCNc1ccnc2cc(OCc3ccccc3)ccc12
IC50 (BGC-823): 1.25 µM | IC50 (RKO): 2.35 µM | IC50 (DLD-1): 2.14 µM | IC50 (NCI-H1650): 1.62 µM | IC50 (SK-OV-3): 2.35 µM | IC50 (HCT-116): 1.98 µM | IC50 (HepG2): 3.12 µM

Structure (SMILES): C=CCOc1ccc2c(Cl)ccnc2c1
IC50 (BGC-823): 2.93 µM | IC50 (RKO): 2.46 µM | IC50 (DLD-1): 2.89 µM | IC50 (NCI-H1650): 2.28 µM | IC50 (SK-OV-3): 4.03 µM | IC50 (HCT-116): 2.57 µM | IC50 (HepG2): 2.77 µM

solubility [1]: > 10000 µg/mL
Structure (SMILES): CN(C)CCCNc1ccnc2cc(OCc3ccc(F)cc3)ccc12
IC50 (BGC-823): 0.49 µM | IC50 (RKO): 1.23 µM | IC50 (DLD-1): 2.54 µM | IC50 (NCI-H1650): 0.94 µM | IC50 (SK-OV-3): 1.28 µM | IC50 (HCT-116): 0.74 µM | IC50 (HepG2): 1.57 µM

Structure (SMILES): CCCCCCCCOc1ccc2c(Cl)ccnc2c1
IC50 (BGC-823): 4.3 µM | IC50 (RKO): 3.64 µM | IC50 (DLD-1): 4.5 µM | IC50 (NCI-H1650): 3.24 µM | IC50 (SK-OV-3): 4.3 µM | IC50 (HCT-116): 2.82 µM | IC50 (HepG2): 2.64 µM

Structure (SMILES): Clc1ccnc2cc(OCCCc3ccccc3)ccc12
IC50 (BGC-823): 2.37 µM | IC50 (RKO): 1.42 µM | IC50 (DLD-1): 2.14 µM | IC50 (NCI-H1650): 0.63 µM | IC50 (SK-OV-3): 3.61 µM | IC50 (HCT-116): 0.8 µM | IC50 (HepG2): 1.78 µM

Structure (SMILES): Clc1ccnc2cc(OCc3ccccc3)ccc12
IC50 (BGC-823): 5.17 µM | IC50 (RKO): 2.41 µM | IC50 (DLD-1): 3.27 µM | IC50 (NCI-H1650): 2.72 µM | IC50 (SK-OV-3): 5.17 µM | IC50 (HCT-116): 2.47 µM | IC50 (HepG2): 2.68 µM

solubility [1]: > 10000 µg/mL
Structure (SMILES): C=CCOc1ccc2c(NCCN(C)C)ccnc2c1
IC50 (BGC-823): 1.36 µM | IC50 (RKO): 1.27 µM | IC50 (DLD-1): 1.53 µM | IC50 (NCI-H1650): 0.93 µM | IC50 (SK-OV-3): 1.56 µM | IC50 (HCT-116): 0.86 µM | IC50 (HepG2): 1.66 µM

Structure (SMILES): CCOc1ccc2c(Cl)ccnc2c1
IC50 (BGC-823): 3.91 µM | IC50 (RKO): 3.87 µM | IC50 (DLD-1): 2.75 µM | IC50 (NCI-H1650): 3.34 µM | IC50 (SK-OV-3): 3.46 µM | IC50 (HCT-116): 3.16 µM | IC50 (HepG2): 2.66 µM

Structure (SMILES): CCCCOc1ccc2c(Cl)ccnc2c1
IC50 (BGC-823): 3.61 µM | IC50 (RKO): 3.05 µM | IC50 (DLD-1): 3.78 µM | IC50 (NCI-H1650): 2.57 µM | IC50 (SK-OV-3): 4.13 µM | IC50 (HCT-116): 2.74 µM | IC50 (HepG2): 2.64 µM

Structure (SMILES): CCCCCCOc1ccc2c(Cl)ccnc2c1
IC50 (BGC-823): 2.38 µM | IC50 (RKO): 2.72 µM | IC50 (DLD-1): 2.66 µM | IC50 (NCI-H1650): 2.08 µM | IC50 (SK-OV-3): > 10 µM | IC50 (HCT-116): 2.44 µM | IC50 (HepG2): 2.42 µM

solubility [1]: > 10000 µg/mL
Structure (SMILES): CCOc1ccc2c(NCCCN(C)C)ccnc2c1
IC50 (BGC-823): 9.81 µM | IC50 (RKO): 5.24 µM | IC50 (DLD-1): 8.54 µM | IC50 (NCI-H1650): 3.83 µM | IC50 (SK-OV-3): 6.78 µM | IC50 (HCT-116): 3.38 µM | IC50 (HepG2): 5.86 µM

solubility [1]: > 10000 µg/mL
Structure (SMILES): CCOc1ccc2c(NCCN(C)C)ccnc2c1
IC50 (BGC-823): 2.52 µM | IC50 (RKO): 3.65 µM | IC50 (DLD-1): 6.24 µM | IC50 (NCI-H1650): 3.49 µM | IC50 (SK-OV-3): 4.62 µM | IC50 (HCT-116): 2.57 µM | IC50 (HepG2): 5.68 µM

Structure (SMILES): COc1ccc2c(Cl)ccnc2c1
IC50 (BGC-823): > 10 µM | IC50 (RKO): 9.65 µM | IC50 (DLD-1): > 10 µM | IC50 (NCI-H1650): 8.16 µM | IC50 (SK-OV-3): > 10 µM | IC50 (HCT-116): 8.82 µM | IC50 (HepG2): 6.07 µM

Structure (SMILES): Fc1ccc(COc2ccc3c(Cl)ccnc3c2)cc1
IC50 (BGC-823): 2.78 µM | IC50 (RKO): 1.98 µM | IC50 (DLD-1): 3.23 µM | IC50 (NCI-H1650): 2.23 µM | IC50 (SK-OV-3): 2.78 µM | IC50 (HCT-116): 2.07 µM | IC50 (HepG2): 3.01 µM

solubility [1]: > 10000 µg/mL
Structure (SMILES): CCCCCCOc1ccc2c(NCCN(C)C)ccnc2c1
IC50 (BGC-823): 1.09 µM | IC50 (RKO): 1.12 µM | IC50 (DLD-1): 1.87 µM | IC50 (NCI-H1650): 0.93 µM | IC50 (SK-OV-3): 1.86 µM | IC50 (HCT-116): 0.85 µM | IC50 (HepG2): 1.37 µM

solubility [1]: > 10000 µg/mL
Structure (SMILES): C=CCOc1ccc2c(NCCCN(C)C)ccnc2c1
IC50 (BGC-823): 6.68 µM | IC50 (RKO): 3.56 µM | IC50 (DLD-1): 5.18 µM | IC50 (NCI-H1650): 3.12 µM | IC50 (SK-OV-3): 4.25 µM | IC50 (HCT-116): 2.1 µM | IC50 (HepG2): 3.99 µM

Structure (SMILES): Clc1ccnc2cc(OCCc3ccccc3)ccc12
IC50 (BGC-823): 2.01 µM | IC50 (RKO): 2.56 µM | IC50 (DLD-1): 3.38 µM | IC50 (NCI-H1650): 2.3 µM | IC50 (SK-OV-3): 2.01 µM | IC50 (HCT-116): 2.18 µM | IC50 (HepG2): 3.31 µM

Structure (SMILES): Oc1ccnc2cc(Cl)ccc12
IC50 (BGC-823): > 10 µM | IC50 (RKO): > 10 µM | IC50 (DLD-1): > 10 µM | IC50 (NCI-H1650): > 10 µM | IC50 (SK-OV-3): > 10 µM | IC50 (HCT-116): > 10 µM | IC50 (HepG2): > 10 µM
